From patent publication US20250186541A1, “DLL3 TARGETING PEPTIDES AND CONSTRUCTS THEREOF” (MARIANA ONCOLOGY INC., priority 2023, published 2025)
Numbered stars: 1 amine (or outer) side, 2 acyl side, 3 side chain; on linkers, the order of the positions; unused ones are H or OH. Bridge positions count the residues as written; N and C are the ends. Square brackets hold non-standard residues; d marks the D form. Peptide text beside a SMILES is read from it. * marks the point of attachment. Ala(1-CH2CO2H-4-piperidyl) = N[C@@H](CC1CCN(CC(=O)O)CC1)C(=O)O; Ala(piperidin-4-yl) = O=C([C@H](CC1CCN([*:3])CC1)N[*:1])[*:2]; DOTA = O=C(O)CN1CCN(CC(=O)O)CCN(CC(=O)*)CCN(CC(=O)O)CC1; Phe(4-CH2NH2) = NCc1ccc(C[C@H](N)C(=O)O)cc1; 1Nal = N[C@@H](Cc1cccc2ccccc12)C(=O)O; 2Nal = N[C@@H](Cc1ccc2ccccc2c1)C(=O)O; tBuAla = CC(C)(C)C[C@H](N)C(=O)O; dAllylGly = C=CC[C@@H](N)C(=O)O; αMeD = C[C@](N)(CC(=O)O)C(=O)O; AllylGly = C=CC[C@H](N)C(=O)O; αMeP = C[C@@]1(C(=O)O)CCCN1

T1: human DLL3 (Homo sapiens, UniProt Q9NYJ7)
T1 construct: biotin (biotinylated)
T1 sequence (Q9NYJ7 27-618): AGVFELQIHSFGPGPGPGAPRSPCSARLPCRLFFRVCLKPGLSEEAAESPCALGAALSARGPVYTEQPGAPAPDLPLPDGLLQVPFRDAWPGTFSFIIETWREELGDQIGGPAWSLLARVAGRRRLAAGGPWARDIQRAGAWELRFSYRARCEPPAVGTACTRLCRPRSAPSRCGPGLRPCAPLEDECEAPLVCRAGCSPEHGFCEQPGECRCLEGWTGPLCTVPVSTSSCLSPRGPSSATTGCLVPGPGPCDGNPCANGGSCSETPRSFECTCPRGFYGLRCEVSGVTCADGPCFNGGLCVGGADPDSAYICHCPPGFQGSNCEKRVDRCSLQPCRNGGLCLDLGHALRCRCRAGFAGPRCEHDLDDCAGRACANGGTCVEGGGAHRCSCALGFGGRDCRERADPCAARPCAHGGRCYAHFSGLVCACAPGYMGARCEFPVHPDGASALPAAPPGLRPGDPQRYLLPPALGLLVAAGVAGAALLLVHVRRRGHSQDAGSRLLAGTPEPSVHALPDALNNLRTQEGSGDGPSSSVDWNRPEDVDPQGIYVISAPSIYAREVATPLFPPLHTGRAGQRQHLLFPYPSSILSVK

T2: Biotinylated human DLL3 (human, UniProt Q9NYJ7 27-492, biotinylated (site not stated))
T2 construct: also called Delta-like ligand 3; Delta Like Canonical Notch Ligand 3
T2 sequence (looked up): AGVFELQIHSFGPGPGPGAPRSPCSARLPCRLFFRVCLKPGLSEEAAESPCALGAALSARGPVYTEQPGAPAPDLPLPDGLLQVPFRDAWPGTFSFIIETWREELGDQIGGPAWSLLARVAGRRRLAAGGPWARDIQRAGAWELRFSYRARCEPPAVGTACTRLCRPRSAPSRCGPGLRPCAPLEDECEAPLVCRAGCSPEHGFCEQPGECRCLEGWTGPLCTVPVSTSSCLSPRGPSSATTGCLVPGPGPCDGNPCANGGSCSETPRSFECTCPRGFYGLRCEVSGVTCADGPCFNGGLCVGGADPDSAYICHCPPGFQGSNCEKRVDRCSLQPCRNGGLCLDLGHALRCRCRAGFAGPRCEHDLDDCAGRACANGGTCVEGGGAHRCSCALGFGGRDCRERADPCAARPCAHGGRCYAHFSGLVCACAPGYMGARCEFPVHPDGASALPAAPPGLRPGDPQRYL


molecular target: T1, human DLL3; test: Affinity determination by Surface Plasmon Resonance (SPR), Biacore, 1:1 binding model; conditions: biotinylated human DLL3 on streptavidin chip, 25° C.; NB = nonbinding
Procedure, shortened: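 SPR with biotinylated human DLL3 captured on a streptavidin chip, with a reference surface subtracted. Samples were injected at several concentrations at 100 μL/min in phosphate buffer with 137 mM NaCl, 2.7 mM KCl, 0.05% P20 and 2% DMSO. Kinetic and affinity constants came from a 1:1 binding fit.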

Row | Molecule | Kd [nM] | SPR KD (nM)
1 | CC(=O)N[C@@H](CC1CCN(CC(=O)O)CC1)C(=O)N[C@@H](CO)C(=O)N[C@@](C)(CC(=O)O)C(=O)N[C@H]1C/C=C\C[C@@H](C(=O)N2CCC[C@@]2(C)C(=O)N[C@@H](Cc2ccccc2)C(=O)N[C@@H](CC(=O)O)C(N)=O)NC(=O)[C@H](CC(N)=O)NC(=O)[C@H](Cc2ccc3ccccc3c2)NC(=O)[C@H](Cc2ccc(CNC(=O)CN3CCN(CC(=O)O)CCN(CC(=O)O)CCN(CC(=O)O)CC3)cc2)NC(=O)[C@H](CC(C)(C)C)NC(=O)[C@H](Cc2cccc3ccccc23)NC1=O [compound 207, Ac-[3-(piperidinyl-4-CH2CO2H)-Ala]-S-(aMe-Asp)-AllyG(4)-(1Nal)-(t-Bu-Ala)-[PAF(DOTA)]-(2Nal)-N-AllyG(4)-(aMe-P)-F-D-CONH2] (Ac-[Ala(1-CH2CO2H-4-piperidyl)]S[αMeD][AllylGly][1Nal][tBuAla][Phe(4-CH2NH2)](DOTA)[2Nal]N[AllylGly][αMeP]FD-NH2; staple (Z) 4-10) | 31 | –
2 | CC(=O)N[C@@H](CC1CCN(CC(=O)O)CC1)C(=O)N[C@@H](CO)C(=O)N[C@@](C)(CC(=O)O)C(=O)N[C@H]1C/C=C/C[C@@H](C(=O)N2CCC[C@@]2(C)C(=O)N[C@@H](Cc2ccccc2)C(=O)N[C@@H](CC(=O)O)C(N)=O)NC(=O)[C@H](CC(N)=O)NC(=O)[C@H](Cc2ccc3ccccc3c2)NC(=O)[C@H](Cc2ccc(CNC(=O)CN3CCN(CC(=O)O)CCN(CC(=O)O)CCN(CC(=O)O)CC3)cc2)NC(=O)[C@H](CC(C)(C)C)NC(=O)[C@H](Cc2cccc3ccccc23)NC1=O [compound 208, Ac-[3-(piperidinyl-4-CH2CO2H)-Ala]-S-(aMe-Asp)-AllyG(4)-(1Nal)-(t-Bu-Ala)-[PAF(DOTA)]-(2Nal)-N-AllyG(4)-(aMe-P)-F-D-CONH2] (Ac-[Ala(1-CH2CO2H-4-piperidyl)]S[αMeD][AllylGly][1Nal][tBuAla][Phe(4-CH2NH2)](DOTA)[2Nal]N[AllylGly][αMeP]FD-NH2; staple (E) 4-10) | 0.386 | –
3 | CC(=O)N[C@@H](CC1CCNCC1)C(=O)N[C@@H](CO)C(=O)N[C@@H](CC(=O)O)C(=O)N[C@H]1CCCC[C@@H](C(=O)N2CCC[C@@]2(C)C(=O)N[C@@H](Cc2ccccc2)C(=O)N[C@@H](CC(=O)O)C(N)=O)NC(=O)[C@H](CC(N)=O)NC(=O)[C@H](Cc2ccc3ccccc3c2)NC(=O)[C@H](Cc2ccc(CNC(=O)CN3CCN(CC(=O)O)CCN(CC(=O)O)CCN(CC(=O)O)CC3)cc2)NC(=O)[C@H](CC(C)(C)C)NC(=O)[C@H](Cc2cccc3ccccc23)NC1=O [compound 209, Ac-[3-(4-piperidinyl)-Ala]-S-D-AllyG(4)*-(1Nal)-(t-Bu-Ala)-[PAF(DOTA)]-(2Nal)-N-AllyG(4)*-(aMe-P)-F-D-CONH2] | 0.591 | –
4 | CC(=O)N[C@@H](CC1CCNCC1)C(=O)N[C@@H](CO)C(=O)N[C@@H](CC(=O)O)C(=O)N[C@@H]1C/C=C/C[C@@H](C(=O)N2CCC[C@@]2(C)C(=O)N[C@@H](Cc2ccccc2)C(=O)N[C@@H](CC(=O)O)C(N)=O)NC(=O)[C@H](CC(N)=O)NC(=O)[C@H](Cc2ccc3ccccc3c2)NC(=O)[C@H](Cc2ccc(CNC(=O)CN3CCN(CC(=O)O)CCN(CC(=O)O)CCN(CC(=O)O)CC3)cc2)NC(=O)[C@H](CC(C)(C)C)NC(=O)[C@H](Cc2cccc3ccccc23)NC1=O [compound 210, Ac-[3-(4-piperidinyl)-Ala]-S-D-D-AllyG(4)-(1Nal)-(t-Bu-Ala)-[PAF(DOTA)]-(2Nal)-N-AllyG(4)-(aMe-P)-F-D-CONH2] (Ac-[Ala(piperidin-4-yl)]SD[dAllylGly][1Nal][tBuAla][Phe(4-CH2NH2)](DOTA)[2Nal]N[AllylGly][αMeP]FD-NH2; staple (E) 4-10) | > 100 | –
5 | CC(=O)N[C@@H](CC1CCNCC1)C(=O)N[C@@H](CO)C(=O)N[C@@H](CC(=O)O)C(=O)N[C@H]1C/C=C\C[C@H](C(=O)N2CCC[C@@]2(C)C(=O)N[C@@H](Cc2ccccc2)C(=O)N[C@@H](CC(=O)O)C(N)=O)NC(=O)[C@H](CC(N)=O)NC(=O)[C@H](Cc2ccc3ccccc3c2)NC(=O)[C@H](Cc2ccc(CNC(=O)CN3CCN(CC(=O)O)CCN(CC(=O)O)CCN(CC(=O)O)CC3)cc2)NC(=O)[C@H](CC(C)(C)C)NC(=O)[C@H](Cc2cccc3ccccc23)NC1=O [compound 211, Ac-[3-(4-piperidinyl)-Ala]-S-D-AllyG(4)-(1Nal)-(t-Bu-Ala)-[PAF(DOTA)]-(2Nal)-N-D-AllyG(4)-(aMe-P)-F-D-CONH2] (Ac-[Ala(piperidin-4-yl)]SD[AllylGly][1Nal][tBuAla][Phe(4-CH2NH2)](DOTA)[2Nal]N[dAllylGly][αMeP]FD-NH2; staple (Z) 4-10) | > 100 | –
6 | CC(=O)N[C@@H](CC1CCNCC1)C(=O)N[C@@H](CO)C(=O)N[C@@H](CC(=O)O)C(=O)N[C@@H]1C/C=C/C[C@H](C(=O)N2CCC[C@@]2(C)C(=O)N[C@@H](Cc2ccccc2)C(=O)N[C@@H](CC(=O)O)C(N)=O)NC(=O)[C@H](CC(N)=O)NC(=O)[C@H](Cc2ccc3ccccc3c2)NC(=O)[C@H](Cc2ccc(CNC(=O)CN3CCN(CC(=O)O)CCN(CC(=O)O)CCN(CC(=O)O)CC3)cc2)NC(=O)[C@H](CC(C)(C)C)NC(=O)[C@H](Cc2cccc3ccccc23)NC1=O [compound 212, Ac-[3-(4-piperidinyl)-Ala]-S-D-D-AllyG(4)-(1Nal)-(t-Bu-Ala)-[PAF(DOTA)]-(2Nal)-N-D-AllyG(4)-(aMe-P)-F-D-CONH2] (Ac-[Ala(piperidin-4-yl)]SD[dAllylGly][1Nal][tBuAla][Phe(4-CH2NH2)](DOTA)[2Nal]N[dAllylGly][αMeP]FD-NH2; staple (E) 4-10) | > 100 | –
7 | CC(=O)N[C@@H](CO)C(=O)N[C@@](C)(CC(=O)O)C(=O)N[C@H]1CCCC[C@@H](C(=O)N2CCC[C@@]2(C)C(=O)N[C@@H](Cc2ccccc2)C(=O)N[C@@H](CC(=O)O)C(N)=O)NC(=O)[C@H](CC(N)=O)NC(=O)[C@H](Cc2ccc3ccccc3c2)NC(=O)[C@H](Cc2ccc(CNC(=O)CN3CCN(CC(=O)O)CCN(CC(=O)O)CCN(CC(=O)O)CC3)cc2)NC(=O)[C@H](CC(C)(C)C)NC(=O)[C@H](Cc2cccc3ccccc23)NC1=O [compound 213, Ac-S-(aMe-Asp)-AllyG(4)*-(1Nal)-(t-Bu-Ala)-[PAF(DOTA)]-(2Nal)-N-AllyG(4)*-(aMe-P)-F-D-CONH2] | 0.419 | –
8 | Ac-(Chg)-S-D-C(3)-(1Nal)-(THPG)-Q-W-N-C(3)-(aMe-P)-F-D-D-Lys(DOTA)-CONH2 [compound 128] | – | slow kon

molecular target: T2, Biotinylated human DLL3; test: SPR, biotin-hDLL3 on SA chip; conditions: not given

Row | Molecule | Kd [nM]
9 | Ac-[dA]SDCWLQWNCPFD-NH2 (disulfide 4-10) [Cpd #8] | 8.5
10 | Ac-MS[dA]CWLQWNCPFD-NH2 (disulfide 4-10; SMILES CSCC[C@H](NC(C)=O)C(=O)N[C@@H](CO)C(=O)N[C@H](C)C(=O)N[C@H]1CSSC[C@@H](C(=O)N2CCC[C@H]2C(=O)N[C@@H](Cc2ccccc2)C(=O)N[C@@H](CC(=O)O)C(N)=O)NC(=O)[C@H](CC(N)=O)NC(=O)[C@H](Cc2c[nH]c3ccccc23)NC(=O)[C@H](CCC(N)=O)NC(=O)[C@H](CC(C)C)NC(=O)[C@H](Cc2c[nH]c3ccccc23)NC1=O) [Cpd #10] | 116
11 | Ac-M[dA]DCWLQWNCPFD-NH2 (disulfide 4-10; SMILES CSCC[C@H](NC(C)=O)C(=O)N[C@H](C)C(=O)N[C@@H](CC(=O)O)C(=O)N[C@H]1CSSC[C@@H](C(=O)N2CCC[C@H]2C(=O)N[C@@H](Cc2ccccc2)C(=O)N[C@@H](CC(=O)O)C(N)=O)NC(=O)[C@H](CC(N)=O)NC(=O)[C@H](Cc2c[nH]c3ccccc23)NC(=O)[C@H](CCC(N)=O)NC(=O)[C@H](CC(C)C)NC(=O)[C@H](Cc2c[nH]c3ccccc23)NC1=O) [Cpd #9] | 35.1
12 | Ac-MSDCW[dA]QWNCPFD-NH2 (disulfide 4-10; SMILES CSCC[C@H](NC(C)=O)C(=O)N[C@@H](CO)C(=O)N[C@@H](CC(=O)O)C(=O)N[C@H]1CSSC[C@@H](C(=O)N2CCC[C@H]2C(=O)N[C@@H](Cc2ccccc2)C(=O)N[C@@H](CC(=O)O)C(N)=O)NC(=O)[C@H](CC(N)=O)NC(=O)[C@H](Cc2c[nH]c3ccccc23)NC(=O)[C@H](CCC(N)=O)NC(=O)[C@@H](C)NC(=O)[C@H](Cc2c[nH]c3ccccc23)NC1=O) [Cpd #12] | 63
